# Read-outs that look alike come from different tables or passages of the source.
# Columns and labels:
# [1] = test system: A9 murine tumors; assay: Pharmacodynamic response of tumor metabolites, single PO dose, standard chow; assay type: in vivo, mouse
# Excerpt: (§1) Figure 4 Pharmacodynamic response of ZMP (purple), AICAR (blue), […] (green), dUMP (red), AMP (aqua) & GMP (orange) metabolites in tumors following a single PO dose of LSN3213128 in athymic nude mice.
# [2] = test system: MDA-MB-231met2 xenografts; assay: as above; assay type: in vivo, mouse
# Excerpt: as §1
# [3] = molecular target: T1, TRKA (Homo sapiens, UniProt P04629); assay: CEREP protein kinase assay; assay type: biochemical
# T1 construct: purchased CEREP Panlabs (Eurofins)
# T1 sequence (P04629 33-796): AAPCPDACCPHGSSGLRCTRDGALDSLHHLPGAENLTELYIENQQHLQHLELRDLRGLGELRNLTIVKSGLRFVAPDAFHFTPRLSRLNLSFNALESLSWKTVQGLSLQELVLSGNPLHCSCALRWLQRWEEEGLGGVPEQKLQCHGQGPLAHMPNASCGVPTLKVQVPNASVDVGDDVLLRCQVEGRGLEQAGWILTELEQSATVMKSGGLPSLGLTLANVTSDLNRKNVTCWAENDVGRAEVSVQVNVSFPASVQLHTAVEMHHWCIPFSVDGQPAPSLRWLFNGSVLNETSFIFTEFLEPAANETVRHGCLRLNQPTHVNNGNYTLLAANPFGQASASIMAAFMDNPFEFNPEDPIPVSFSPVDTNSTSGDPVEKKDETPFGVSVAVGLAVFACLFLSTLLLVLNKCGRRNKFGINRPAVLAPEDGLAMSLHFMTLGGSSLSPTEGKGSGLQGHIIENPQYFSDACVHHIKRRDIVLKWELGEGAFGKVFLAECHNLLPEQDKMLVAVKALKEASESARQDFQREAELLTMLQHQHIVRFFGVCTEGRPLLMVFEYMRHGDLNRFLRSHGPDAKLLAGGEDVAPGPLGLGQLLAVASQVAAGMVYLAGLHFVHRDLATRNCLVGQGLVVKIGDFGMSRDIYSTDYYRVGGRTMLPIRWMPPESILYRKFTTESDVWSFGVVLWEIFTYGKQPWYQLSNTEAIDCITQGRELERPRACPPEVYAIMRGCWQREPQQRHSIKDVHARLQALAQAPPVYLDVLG
# [4] = test system: A101D (melenoma); assay: Low folate & high folate in vitro proliferation assay (Alamar Blue); assay type: cell-based; conditions: Homo sapiens
# Description: (§2) Cells lines were acquired from cell banks, see supplemental material, grown using the cell banks recommended culture conditions (Supplemental Table 3). In some experiments noted “low folate” the cells were washed and grown in folate free RPMI-1640 media (Gibco #27016-021) supplemented with 5 ml 1 M Hepes, 5 ml 100 mM Na pyruvate, 2.5 mg/ml glucose and 10% defined FBS (Hyclone #SH30070) per 500 mL media for 5–7 days to deplete intracellular folate levels prior to the start of the experiment. Where noted, cells were maintained in complete “high folate” RPMI-1640 media (ATCC #30-2001) with 10% defined FBS to contrast with the low folate conditions.
# (§3) Cells were cultured using recommended culture conditions unless noted otherwise (Supplemental Table 3). Cells were plated, dosed with compound and incubated at 37 °C for approximately 2 doubling times as determined for each cell line. Cell Titer Glo (Promega) assay was used to measure proliferation according to manufacturer’s recommendations by measuring luminescence with Flexstation3 (Molecular Devices) with 500 ms integration time. […] The % response was fit to a four-parameter logistic equation using ACTIVITYBASE 4.0 to determine the absolute IC50 values.
# (§4) For a limited number of cell lines, compound dosing was performed under high or low folate conditions with cell viability being determined with Alamar Blue rather than an ATP dependent assay. Cells were plated and treated as described above. Proliferation was measured using Alamar Blue Cell Viability Reagent (Invitrogen), and read after approximately 1.5–4 hours incubation at 37 °C on the Envision plate reader (Perkin Elmer) with excitation at 570 nm and emission at 585 nm. The % inhibition for each sample was calculated and fit as described above.
# [5] = test system: HCT 116 (colon); assay: as above; assay type: cell-based; conditions: Homo sapiens
# Description: as §2, §3, §4
# [6] = test system: MIA PaCa-2 (pancreas); assay: as above; assay type: cell-based; conditions: Homo sapiens
# Description: as §2, §3, §4
# [7] = test system: SW620 (colon); assay: as above; assay type: cell-based; conditions: Homo sapiens
# Description: as §2, §3, §4
# [8] = test system: A549 (lung); assay: as above; assay type: cell-based; conditions: Homo sapiens, low folate RPMI media
# Description: as §2, §3, §4
# [9] = test system: NCI-H1155 (lung); assay: as above; assay type: cell-based; conditions: Homo sapiens
# Description: as §2, §3, §4
# [10] = test system: NCI-H1437 (lung); assay: as above; assay type: cell-based; conditions: Homo sapiens
# Description: as §2, §3, §4
# [11] = test system: NCI-H1993 (lung); assay: as above; assay type: cell-based; conditions: Homo sapiens
# Description: as §2, §3, §4
# [12] = test system: MDA-MB-231 (mammary); assay: as above; assay type: cell-based; conditions: Homo sapiens
# Description: as §2, §3, §4
# [13] = test system: SNU-16 (gastric); assay: as above; assay type: cell-based; conditions: Homo sapiens
# Description: as §2, §3, §4
# [14] = test system: NCI-H1299; assay: as above; assay type: cell-based; conditions: Homo sapiens
# Description: as §2, §3, §4
# [15] = molecular target: T2, AXL (Homo sapiens, UniProt P30530); assay: CEREP protein kinase assay; assay type: biochemical
# T2 construct: purchased CEREP Panlabs (Eurofins)
# T2 sequence (P30530 26-894): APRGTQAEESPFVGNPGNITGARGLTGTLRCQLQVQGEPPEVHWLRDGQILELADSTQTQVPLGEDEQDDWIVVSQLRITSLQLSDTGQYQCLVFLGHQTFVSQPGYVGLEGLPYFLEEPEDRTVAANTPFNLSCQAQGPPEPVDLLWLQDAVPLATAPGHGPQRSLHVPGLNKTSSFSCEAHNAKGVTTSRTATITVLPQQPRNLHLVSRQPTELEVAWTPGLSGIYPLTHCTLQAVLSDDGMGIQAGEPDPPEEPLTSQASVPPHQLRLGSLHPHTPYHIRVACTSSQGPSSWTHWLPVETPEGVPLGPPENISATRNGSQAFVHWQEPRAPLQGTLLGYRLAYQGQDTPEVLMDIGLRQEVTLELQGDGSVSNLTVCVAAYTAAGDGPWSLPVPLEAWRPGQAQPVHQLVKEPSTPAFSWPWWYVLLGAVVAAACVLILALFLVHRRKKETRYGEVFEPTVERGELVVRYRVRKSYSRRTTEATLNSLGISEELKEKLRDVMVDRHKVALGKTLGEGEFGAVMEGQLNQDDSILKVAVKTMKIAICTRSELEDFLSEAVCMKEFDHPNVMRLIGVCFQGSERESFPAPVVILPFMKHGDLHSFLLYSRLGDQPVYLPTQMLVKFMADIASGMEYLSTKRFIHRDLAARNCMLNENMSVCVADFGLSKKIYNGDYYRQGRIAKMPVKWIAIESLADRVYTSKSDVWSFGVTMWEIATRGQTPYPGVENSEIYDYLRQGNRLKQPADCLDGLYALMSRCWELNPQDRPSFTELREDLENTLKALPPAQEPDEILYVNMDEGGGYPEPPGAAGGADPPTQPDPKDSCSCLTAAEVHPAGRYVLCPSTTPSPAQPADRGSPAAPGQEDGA
# [16] = molecular target: T3, ROCK1 (Homo sapiens, UniProt Q13464); assay: CEREP protein kinase assay; assay type: biochemical
# T3 construct: purchased CEREP Panlabs (Eurofins)
# T3 sequence (Q13464 whole entry): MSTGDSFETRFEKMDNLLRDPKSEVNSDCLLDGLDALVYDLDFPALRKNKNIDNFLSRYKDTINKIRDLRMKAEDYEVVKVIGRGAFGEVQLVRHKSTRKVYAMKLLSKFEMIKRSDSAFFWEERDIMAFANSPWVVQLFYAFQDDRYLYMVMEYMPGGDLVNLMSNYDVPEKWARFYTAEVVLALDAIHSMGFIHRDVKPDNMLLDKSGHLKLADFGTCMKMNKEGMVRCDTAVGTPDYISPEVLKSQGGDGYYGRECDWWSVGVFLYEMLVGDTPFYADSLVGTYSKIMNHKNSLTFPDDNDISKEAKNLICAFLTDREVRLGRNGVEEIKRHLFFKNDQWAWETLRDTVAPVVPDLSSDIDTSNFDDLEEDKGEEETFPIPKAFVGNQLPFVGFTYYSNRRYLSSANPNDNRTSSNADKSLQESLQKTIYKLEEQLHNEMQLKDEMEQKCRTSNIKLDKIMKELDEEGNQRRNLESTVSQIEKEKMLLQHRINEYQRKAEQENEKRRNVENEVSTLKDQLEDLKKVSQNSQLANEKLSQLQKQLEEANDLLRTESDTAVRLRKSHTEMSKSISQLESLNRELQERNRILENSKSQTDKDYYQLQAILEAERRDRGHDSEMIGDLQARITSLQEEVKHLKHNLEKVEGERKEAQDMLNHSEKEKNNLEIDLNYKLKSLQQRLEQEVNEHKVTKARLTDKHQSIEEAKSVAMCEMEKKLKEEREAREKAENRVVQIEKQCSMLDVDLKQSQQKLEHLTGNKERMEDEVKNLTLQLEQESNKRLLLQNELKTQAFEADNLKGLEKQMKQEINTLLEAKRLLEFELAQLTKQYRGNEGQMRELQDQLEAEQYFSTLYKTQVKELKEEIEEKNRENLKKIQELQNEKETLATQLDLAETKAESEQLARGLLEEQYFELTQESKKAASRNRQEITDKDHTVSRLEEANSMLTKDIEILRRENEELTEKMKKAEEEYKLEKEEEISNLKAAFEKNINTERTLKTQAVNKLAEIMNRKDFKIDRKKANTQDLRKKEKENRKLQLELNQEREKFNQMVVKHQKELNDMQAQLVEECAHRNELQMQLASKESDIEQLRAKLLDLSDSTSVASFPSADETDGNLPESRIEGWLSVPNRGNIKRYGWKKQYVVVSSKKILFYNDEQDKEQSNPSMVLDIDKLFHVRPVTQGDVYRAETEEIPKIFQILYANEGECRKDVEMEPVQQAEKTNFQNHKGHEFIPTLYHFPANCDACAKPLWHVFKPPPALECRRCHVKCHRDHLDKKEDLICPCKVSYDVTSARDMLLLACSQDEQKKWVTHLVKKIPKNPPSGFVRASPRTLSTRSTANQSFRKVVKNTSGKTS
# [17] = molecular target: T4, MET (Homo sapiens, UniProt P08581); assay: CEREP protein kinase assay; assay type: biochemical
# T4 construct: purchased CEREP Panlabs (Eurofins)
# T4 sequence (P08581 25-1390): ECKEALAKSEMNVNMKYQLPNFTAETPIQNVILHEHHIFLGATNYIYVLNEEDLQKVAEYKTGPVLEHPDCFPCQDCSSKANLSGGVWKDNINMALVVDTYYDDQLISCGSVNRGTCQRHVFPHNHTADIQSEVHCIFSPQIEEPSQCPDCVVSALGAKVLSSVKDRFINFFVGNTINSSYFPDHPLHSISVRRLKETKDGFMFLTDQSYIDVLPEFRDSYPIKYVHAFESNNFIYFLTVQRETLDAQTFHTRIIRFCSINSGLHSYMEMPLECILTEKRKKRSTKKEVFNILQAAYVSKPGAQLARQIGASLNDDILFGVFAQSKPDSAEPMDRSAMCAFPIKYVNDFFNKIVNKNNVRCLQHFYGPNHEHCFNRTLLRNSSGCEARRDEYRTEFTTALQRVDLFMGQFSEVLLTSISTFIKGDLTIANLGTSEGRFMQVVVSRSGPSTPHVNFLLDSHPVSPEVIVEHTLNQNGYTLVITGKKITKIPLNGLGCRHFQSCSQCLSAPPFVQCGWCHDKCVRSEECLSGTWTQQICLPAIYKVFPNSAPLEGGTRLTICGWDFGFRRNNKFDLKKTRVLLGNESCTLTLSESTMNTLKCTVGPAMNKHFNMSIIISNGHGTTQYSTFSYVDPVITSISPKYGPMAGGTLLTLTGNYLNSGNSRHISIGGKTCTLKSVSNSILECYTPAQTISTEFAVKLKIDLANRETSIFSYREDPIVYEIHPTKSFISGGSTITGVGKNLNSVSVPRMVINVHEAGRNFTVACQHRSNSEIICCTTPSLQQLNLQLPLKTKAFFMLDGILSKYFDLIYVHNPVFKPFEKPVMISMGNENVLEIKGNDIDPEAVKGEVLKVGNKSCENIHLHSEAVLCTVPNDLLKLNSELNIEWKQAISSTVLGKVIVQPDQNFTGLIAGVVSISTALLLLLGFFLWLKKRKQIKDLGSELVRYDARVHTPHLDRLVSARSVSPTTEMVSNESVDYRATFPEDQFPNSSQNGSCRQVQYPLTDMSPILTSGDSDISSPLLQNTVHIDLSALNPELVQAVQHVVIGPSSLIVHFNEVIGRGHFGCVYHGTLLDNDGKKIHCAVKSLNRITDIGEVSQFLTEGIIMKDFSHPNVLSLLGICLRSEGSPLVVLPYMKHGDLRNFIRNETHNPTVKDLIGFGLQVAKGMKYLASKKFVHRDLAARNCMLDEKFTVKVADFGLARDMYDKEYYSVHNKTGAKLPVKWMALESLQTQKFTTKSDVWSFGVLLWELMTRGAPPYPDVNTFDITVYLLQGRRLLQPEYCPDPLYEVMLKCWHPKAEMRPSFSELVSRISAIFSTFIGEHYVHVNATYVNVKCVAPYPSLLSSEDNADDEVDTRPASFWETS
# [18] = MDA-MB-231met2 tumors, 4 h post treatment
# [19] = RPMI media, read-out: Alamar Blue GI50 Regular folate
# [20] = low folate RPMI media, read-out: Alamar Blue GI50 Low folate
compound,measurement,setting,value
"O=c1[nH]ccc2cc(F)c(NS(=O)(=O)c3ccc(N4CC[C@@H](O)C4)s3)cc12 [LSN3213128, N-(6-Fluoro-1-oxo-1,2-dihydroisoquinolin-7-yl)-5-[(3R)-3-hydroxypyrrolidin-1-yl]thiophene-2-sulfonamide]",dose after which tumor ZMP response appeared to saturate,"[1]; nude mice on standard chow, 4 h post PO dose",30 mg/kg
same,tumor dUMP levels,"[1]; standard chow, 4 h, up to 100 mg/kg",did not rise
same,change in tumor ZMP,[2]; [18],15 fold
same,change in tumor purine levels (AMP and GMP),[2]; [18],twofold
same,dose at which tumor ZMP response appeared to saturate,"[2]; MDA-MB-231met2 xenografts, nude mice on standard chow, 4 h post PO dose",10 mg/kg
same,tumor dUMP levels,"[2]; MDA-MB-231met2 xenografts, standard chow, 4 h, up to 100 mg/kg",did not rise
same,inhibition at 0.2 µM,[3]; @ 0.2 uM,-1.15%
same,inhibition at 2 µM,[3]; @ 2 uM,8.27%
same,inhibition at 20 µM,[3]; @ 20 uM,10.1%
same,GI50,[4]; [19],3290 nM
same,GI50,[4]; [20],2.9 nM
same,GI50,[5]; [19],2810 ± 1220 nM
same,GI50,[5]; [20],2.2 ± 2.1 nM
same,GI50,[6]; [19],4870 ± 4200 nM
same,GI50,[6]; [20],1.6 ± 1 nM
same,GI50,"[7]; SW-620, RPMI media, read-out: Alamar Blue GI50 Regular folate",3910 ± 3240 nM
same,GI50,"[7]; SW-620, low folate RPMI media, read-out: Alamar Blue GI50 Low folate",8.8 ± 1.6 nM
same,GI50,[8],6 nM
same,GI50,[9]; [19],729 ± 215 nM
same,GI50,[9]; [20],4.9 nM
same,GI50,[10]; [19],1880 ± 894 nM
same,GI50,[10]; [20],0.73 nM
same,GI50,[11]; [19],2680 ± 2540 nM
same,GI50,[11]; [20],3 ± 2.7 nM
same,GI50,[12]; [19],85 ± 42 nM
same,GI50,[12]; [20],0.49 nM
same,GI50,[13]; [19],1590 ± 1270 nM
same,GI50,[13]; [20],1.2 ± 1.2 nM
same,GI50,[14]; [19],1590 nM
same,GI50,[14]; [20],4.8 nM
same,inhibition at 0.2 µM,[15]; @ 0.2 uM,-9.2%
same,inhibition at 2 µM,[15]; @ 2 uM,2.93%
same,inhibition at 20 µM,[15]; @ 20 uM,22.2%
same,inhibition at 0.2 µM,[16]; @ 0.2 uM,7.67%
same,inhibition at 2 µM,[16]; @ 2 uM,10.9%
same,inhibition at 20 µM,[16]; @ 20 uM,21.3%
same,inhibition at 0.2 µM,[17]; @ 0.2 uM,-5.89%
same,inhibition at 2 µM,[17]; @ 2 uM,8.99%
same,inhibition at 20 µM,[17]; @ 20 uM,17.8%
